Laboratory results reported in patent publication US8962603B2, “Method for post coital contraception in overweight or obese female subjects using ulipristal acetate” (Laboratoire HRA-Pharma, priority 2010, dated 2015).

Key:
[1] = test system: women requesting emergency contraception after unprotected intercourse; assay: Meta-analysis of Phase II and Phase III emergency contraception studies: pregnancy rate by WHO BMI class; assay type: in vivo; details: for Odds Ratio [95% CI]: ulipristal acetate vs levonorgestrel
Method: The effect of BMI in pooled phase III studies was assessed by comparing pregnancy rates among sub-groups of the study populations according to WHO weight classes. Pregnancy rates increased starting from BMI>25, and for women with a BMI>30, the 95% CI of the observed pregnancy rate overlapped with the expected pregnancy rate. […] This Phase II, prospective, multicenter, randomized, double-blind study was performed to compare the efficacy of a single 50 mg dose of ulipristal acetate (unmicronized in gelatine capsule) with two 0.75 mg doses of levonorgestrel used as an emergency postcoital contraceptive within 72 hours of unprotected intercourse. The study was carried out in seven sites in seven different states in the United States. Women (aged ≧18 years old) not using hormonal contraception and who requested emergency contraception within 72 hours (3 days) after unprotected coitus defined by lack of contraceptive use, condom breakage or other barrier contraceptive method failure were included. Subjects were required to have a history of regular menstrual cycles (mean length of 24-42 days with intra-individual variation of ±5 days). At least one normal menstrual cycle (two menses) was required after delivery, abortion, or discontinuation of hormonal contraception. Subjects were excluded from the study if they were pregnant at screening or enrollment (assessed by a high-sensitivity urine pregnancy test), pregnant or breastfeeding within the 2 months before screening, using an intra-uterine device (IUD) or female or male sterilization as a contraceptive method, uncertain about the date of the last menstrual period (±3 days), had been nauseated or vomited in the 2 weeks before screening, had used oral glucocorticoid replacement therapy in the year before the screening, or were currently enrolled in any other investigational trial. Each woman returned for a follow-up visit 5 to 7 days after the expected onset of their next menstrual period and a high-sensitivity urine pregnancy test was performed. The primary objective was to compare the efficacy, as determined by pregnancy prevention, of 50 mg ulipristal acetate and levonorgestrel used as an emergency postcoital contraceptive within 72 hours of unprotected intercourse. […] This was a prospective, single-blind (subject and sponsor blind, investigator not blind), randomized, multicenter, 2-arm parallel comparative study designed to evaluate the efficacy, safety and tolerability of a single dose of ulipristal acetate (30 mg) compared to levonorgestrel (1.5 mg) administered for EC within 120 hours after unprotected intercourse. It was performed in 10 centers in Europe and 25 centers in the US. Women (aged ≧16 years), with regular menstrual cycles (between 24 and 35 days and intra-individual variations less than or equal to 5 days), who presented for EC within 120 hours after unprotected intercourse at a participating study site and who met the inclusion/exclusion criteria were enrolled into the study after they signed informed consent form. Subjects were excluded from the study in case of ongoing pregnancy or breast-feeding or current use of hormonal contraception or IUD. The study medication (ulipristal acetate 30 mg or levonorgestrel 1.5 mg) was administered according to a random allocation procedure generated electronically. Treatment was administered orally immediately after all eligibility criteria (including negative urine pregnancy test) had been verified. […] The primary objective of the study was to provide evidence that the pregnancy rate observed after taking ulipristal acetate (30 mg) within 72 hours of unprotected intercourse is lower than the expected pregnancy rate in the absence of EC. […]

[2] = used within 72 hours of UPI; cited from earlier work
[3] = in vivo; cited from earlier work
[4] = BMI class (WHO) Normal weight (18.5 to 24.99), N=2087
[5] = BMI class (WHO) Obese grade I (30 to 34.99), N=285
[6] = BMI class (WHO) Obese grade II (35 to 39.99), N=107
[7] = BMI class (WHO) Obese grade III (≧40), N=77
[8] = BMI class (WHO) Overweight (25 to 29.99), N=744
[9] = BMI class (WHO) Underweight (<18.5), N=145
[10] = grouped BMI class Obese II and more, N=184
[11] = grouped BMI class Overweight & Obese I, N=1029
[12] = grouped BMI class Underweight & Normal, N=2232

| SMILES | Pregnancy rate [1, 4] [%] | Pregnancy rate [1, 5] [%] | Pregnancy rate [1, 6] [%] | Pregnancy rate [1, 7] [%] | Pregnancy rate [1, 8] [%] | Pregnancy rate [1, 9] [%] | Pregnancy rate [1, 10] [%] | Pregnancy rate [1, 11] [%] | Pregnancy rate [1, 12] [%] | efficacy for preventing pregnancy versus levonorgestrel [2] | effect on ovulation [3] | efficacy by BMI group ([1]; obese grade II (BMI 35 and above) subjects) | Odds Ratio [95% CI] ([1]; Obese II and more, CI [0.23, 4.44], NS) | Odds Ratio [95% CI] ([1]; Overweight & Obese I, CI [0.11, 0.74], p = 0.0073) | Odds Ratio [95% CI] ([1]; Underweight & Normal, CI [0.37, 1.73], NS) | efficacy by BMI group ([1]; underweight and normal (BMI below 25) and overweight and obese grade I (BMI 25-34.99) subjects) | risk of pregnancy divided by (ulipristal acetate versus levonorgestrel) ([1]; women overweight or with grade I obesity (BMI 25-34.99), p=0.0073) | efficacy versus levonorgestrel ([1]; women with a BMI>25) |
| --- | --- | --- | --- | --- | --- | --- | --- | --- | --- | --- | --- | --- | --- | --- | --- | --- | --- | --- |
| C#C[C@]1(O)CC[C@H]2[C@@H]3CCC4=CC(=O)CC[C@@H]4[C@H]3CC[C@@]21CC [Levonorgestrel, levonorgestrel] | 1.33 | 6.71 | 3.85 | 4.88 | 2.45 | 1.43 | 4.30 | 3.68 | 1.34 |  |  |  |  |  |  |  |  |  |
| CC(=O)O[C@]1(C(C)=O)CC[C@H]2[C@@H]3CCC4=CC(=O)CCC4=C3[C@@H](c3ccc(N(C)C)cc3)C[C@@]21C [Ulipristal acetate, 17α-acetoxy-11β-[4-N,N-dimethylamino-phenyl)-19-norpregna-4,9-diene-3,20-dione] | 1.16 | 1.47 | 3.64 | 5.56 | 1.06 | 0 | 4.40 | 1.17 | 1.08 | as efficacious as levonorgestrel | inhibits or delays ovulation in a dose-dependent fashion | decreased | 1.02 | 0.31 | 0.81 | remained constant | 3 | significantly more effective than levonorgestrel |
